Each structure is given as a SMILES string. ± gives the expanded uncertainty stated by the source.

The conditions of series [1]: 101 kPa, Liquid, Vibrating tube method.
Series [2] in a line: xn = mol fraction of the nth substance listed. The conditions noted are these: 283.15 K; 101 kPa; Liquid; Vibrating tube method; x2 = 0.

One may read the mass density as the mass of a sample divided by its volume. Regarding `CCCOCC(C)O` (configuration not stated) [1-propoxy-2-propanol], the mass density in series [1] (283.15 K) is 894.462 ± 0.23 kg/m3; in series [1] (288.15 K), 889.963 ± 0.23 kg/m3; in series [1] (293.15 K) it was 885.456 ± 0.23 kg/m3; in series [1] (298.15 K), 880.837 ± 0.23 kg/m3; in series [1] (303.15 K), 876.279 ± 0.23 kg/m3.

For the compound `O` [water], in series [1] (283.15 K), the mass density was 999.699 ± 0.05 kg/m3.

With `O` [water] + CCCOCC(C)O, the mass density in series [2] was 999.699 ± 0.05 kg/m3.

Source of the values: the NIST ThermoML archive (doi:10.1016/j.jct.2009.06.016).
